From paper PMC6522941, “Design, synthesis, and anticancer evaluation of novel quinoline derivatives of ursolic acid with hydrazide, oxadiazole, and thiadiazole moieties as potent MEK inhibitors” (Journal of Enzyme Inhibition and Medicinal Chemistry, 2019)

Legend:
MDA-MB-231 cells = experiment: MTT cytotoxic assay, MDA-MB-231; type: cell-based, human; settings: Homo sapiens, MDA-MB-231, 72 h
Description: (§1) Human breast cancer cell line (MDA-MB-231), cervical carcinoma cell line (HeLa), the liver cancer cell line (SMMC-7721) and normal hepatocyte cell line (QSG-7701) were maintained in Dulbecco Modified Eagle Medium (DMEM) containing 4.0 mM L-Glutamine and 4500 mg/L Glucose supplemented with 10% (v/v) foetal bovine serum (FBS) and 100 U/mL penicillin/streptomycin at 37 °C in humidified atmosphere of 5% CO2 and 95% air.
(§2) Exponentially growing MDA-MB-231, Hela and SMMC-7721 cell lines were seeded into 96-well plate for 100 μL and treated with different concentrations of the synthetic compounds for 72 h, and then 10 μL of MTT (10 mg/mL) was added and incubation for 3 ∼ 4 h at 37 °C. The generated purple formazan crystals from viable can be dissolved by adding 100 μL DMSO. The plates were swirled gently for 5 min and quantified by measuring the OD of the plates at the wavelength of 540 nm. Each concentration was repeated in three wells and the same experimental condition was provided for all compounds. The results were expressed as IC50 values with standard deviations, which was defined as the concentration at which 50% survival of cells was discerned. Etoposide was co-assayed as positive control.
(§3) The in vitro cytotoxic activity of derivatives 3a–d, 4a–h, 5a–h, and 6a–h were evaluated by MTT assay against human breast cancer cell line (MDA-MB-231), cervical carcinoma cell line (HeLa), hepatocarcinoma cell line (SMMC-7721) and human normal hepatocyte cell line (QSG-7701). The anticancer drug etoposide was co-assayed as the positive control. All tested compounds were dissolved in DMSO and the stock solutions were diluted by DMEM medium before treatment of the cultured cells.

HeLa cells = experiment: MTT cytotoxic assay, HeLa; type: cell-based; settings: Homo sapiens, 72 h
Description: as §1, §2, §3

SMMC-7721 cells = experiment: MTT cytotoxic assay, SMMC-7721; type: cell-based; settings: Homo sapiens, 72 h
Description: as §1, §2, §3

QSG-7701 cells = experiment: MTT cytotoxic assay, normal hepatocyte QSG-7701; type: cell-based, human; settings: for IC50: Homo sapiens, QSG7701, MTT, normal hepatocyte cell line; for Selectivity: IC50 (QSG-7701)/IC50 (HeLa)
Description: as §1, §2, §3

MEK1 = target: T1, MEK1 (Homo sapiens, UniProt Q02750); experiment: In vitro MEK1 kinase assay (ADP-Glo); type: biochemical; settings: recombinant GST-MEK1, GST-ERK2 (inactive) substrate, 10 μM ATP
T1 construct: purchased Carna Biosciences, Kobe, Japan
T1 sequence (Q02750 whole entry): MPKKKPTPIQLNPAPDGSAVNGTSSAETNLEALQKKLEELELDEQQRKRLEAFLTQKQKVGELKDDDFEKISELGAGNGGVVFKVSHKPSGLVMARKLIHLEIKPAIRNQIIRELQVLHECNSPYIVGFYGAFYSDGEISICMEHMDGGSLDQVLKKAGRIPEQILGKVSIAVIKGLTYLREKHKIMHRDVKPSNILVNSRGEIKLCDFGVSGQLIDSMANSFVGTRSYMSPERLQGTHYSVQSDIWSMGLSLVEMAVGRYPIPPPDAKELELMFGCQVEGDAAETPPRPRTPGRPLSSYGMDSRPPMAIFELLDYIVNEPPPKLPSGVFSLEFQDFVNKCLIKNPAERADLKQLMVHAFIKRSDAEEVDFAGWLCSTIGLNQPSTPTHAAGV
Description: An in vitro kinase assay of MEK1 was performed using ADP-Glo kinase assay (Promega, Madison, WI, USA) according to the manufacturer’s protocol. […] Reactions were stopped by adding 5 μL of ADP-Glo reagent to each well. After incubating at 22 °C for 40 min, 10 μL of the kinase detection reagent was added and the plates were incubated for another 30 min at 22 °C in the dark. The reaction mixture was analysed by EnSpire (PerkinElmer, Waltham, MA, USA).
The Raf/MEK/ERK pathway is the downstream of Ras activation, and the abnormal expression or phosphorylation of the associated proteins is essential for cancer cell proliferation. In this pathway, MEK kinase is an important anticancer target because of its key roles in regulating the cancer cell apoptosis and oncogenic transformation[51]^,[52]. Among MEK proteins, MEK1 and MEK2 are known as substrate-specific kinases which phosphorylate their downstream kinase ERK1/2.

Row | IC50 (MEK1) [µM] | Compound | IC50 (MDA-MB-231 cells) [µM] | IC50 (HeLa cells) [µM] | IC50 (SMMC-7721 cells) [µM] | IC50 (QSG-7701 cells) [µM] | Selectivity (QSG-7701 cells)
1 | – | C[C@H]1[C@H](C)CC[C@]2(C(=O)O)CC[C@]3(C)C(=CC[C@@H]4[C@@]5(C)CC[C@H](O)C(C)(C)[C@@H]5CC[C@]43C)[C@H]12 [Compound 1, Ursolic acid] | > 50 | > 50 | > 50 | – | –
2 | – | C[C@@H]1CC[C@]2(C(=O)O)CC[C@]3(C)C(=CCC4[C@@]5(C)CCC(=O)C(C)(C)C5CC[C@]43C)C2[C@H]1C (stereo partly shown) [Compound 2, 3-oxo-ursolic acid] | > 50 | > 50 | > 50 | – | –
3 | 18.6 | C[C@@H]1CC[C@]2(C(=O)O)CC[C@]3(C)C(=CCC4[C@@]5(C)Cc6cc7ccccc7nc6C(C)(C)C5CC[C@]43C)C2[C@H]1C (stereo partly shown) [Compound 3a] | 0.75 ± 0.05 | 0.37 ± 0.04 | 13.4 ± 0.08 | > 50 | –
4 | 3.59 | COc1ccc2nc3c(cc2c1)CC1(C)C(CCC2(C)C1CC=C1C4C(C)C(C)CCC4(C(=O)O)CCC12C)C3(C)C (stereo not shown) [Compound 3b] | 0.61 ± 0.07 | 0.36 ± 0.05 | 12.49 ± 0.08 | > 50 | 142.3
5 | 0.37 | C[C@@H]1CC[C@]2(C(=O)O)CC[C@]3(C)C(=CCC4[C@@]5(C)Cc6cc7cc(F)ccc7nc6C(C)(C)C5CC[C@]43C)C2[C@H]1C (stereo partly shown) [Compound 3c] | 0.9 ± 0.1 | 1.87 ± 0.03 | 13.34 ± 0.13 | > 50 | 37.0
6 | 0.82 | C[C@@H]1CC[C@]2(C(=O)O)CC[C@]3(C)C(=CCC4[C@@]5(C)Cc6cc7cc(Cl)ccc7nc6C(C)(C)C5CC[C@]43C)C2[C@H]1C (stereo partly shown) [Compound 3d] | 1.36 ± 0.03 | 1.22 ± 0.08 | 14.62 ± 0.05 | > 50 | 59.5
7 | – | CCCCC(=O)NNC(=O)[C@]12CC[C@@H](C)[C@H](C)C1C1=CCC3[C@@]4(C)Cc5cc6ccccc6nc5C(C)(C)C4CC[C@@]3(C)[C@]1(C)CC2 (stereo partly shown) [Compound 4e, N-[ursa-12-en-(2,3)-quinoline-28-oyl]-pentanehydrazide] | > 50 | > 50 | > 50 | – | –
8 | – | CCCCC(=O)NNC(=O)[C@]12CC[C@@H](C)[C@H](C)C1C1=CCC3[C@@]4(C)Cc5cc6cc(OC)ccc6nc5C(C)(C)C4CC[C@@]3(C)[C@]1(C)CC2 (stereo partly shown) [Compound 4f, N-[5′-methoxy-ursa-12-en-(2,3)-quinoline-28-oyl]-pentanehydrazide] | > 50 | > 50 | > 50 | – | –
9 | – | CCCCC(=O)NNC(=O)[C@]12CC[C@@H](C)[C@H](C)C1C1=CCC3[C@@]4(C)Cc5cc6cc(F)ccc6nc5C(C)(C)C4CC[C@@]3(C)[C@]1(C)CC2 (stereo partly shown) [Compound 4g, N-[5′-fluoro-ursa-12-en-(2,3)-quinoline-28-oyl]-pentanehydrazide] | > 50 | > 50 | > 50 | – | –
10 | – | CCCCC(=O)NNC(=O)[C@]12CC[C@@H](C)[C@H](C)C1C1=CCC3[C@@]4(C)Cc5cc6cc(Cl)ccc6nc5C(C)(C)C4CC[C@@]3(C)[C@]1(C)CC2 (stereo partly shown) [Compound 4h, N-[5′-chloro-ursa-12-en-(2,3)-quinoline-28-oyl]-pentanehydrazide] | > 50 | 46 ± 0.91 | > 50 | – | –
11 | – | COc1ccc2nc3c(cc2c1)CC1(C)C(CCC2(C)C1CC=C1C4C(C)C(C)CCC4(c4nnc(C)o4)CCC12C)C3(C)C (stereo not shown) [Compound 5b, N-[5′-methoxy-ursa-12-en-(2,3)-quinoline-28-oyl]-5-methyl-1,3,4-oxadiazole] | 12.25 ± 0.12 | 16.8 ± 0.34 | > 50 | > 50 | 5.6
12 | – | Cc1nnc([C@]23CC[C@@H](C)[C@H](C)C2C2=CCC4[C@@]5(C)Cc6cc7cc(F)ccc7nc6C(C)(C)C5CC[C@@]4(C)[C@]2(C)CC3)o1 (stereo partly shown) [Compound 5c, N-[5′-fluoro-ursa-12-en-(2,3)-quinoline-28-oyl]-5-methyl-1,3,4-oxadiazole] | 13.2 ± 0.58 | 33.8 ± 0.95 | > 50 | > 50 | 3.6
13 | > 50 | Cc1nnc([C@]23CC[C@@H](C)[C@H](C)C2C2=CCC4[C@@]5(C)Cc6cc7cc(Cl)ccc7nc6C(C)(C)C5CC[C@@]4(C)[C@]2(C)CC3)o1 (stereo partly shown) [Compound 5d, N-[5′-chloro-ursa-12-en-(2,3)-quinoline-28-oyl]-5-methyl-1,3,4-oxadiazole] | 11 ± 0.98 | – | > 50 | > 50 | 20.1
14 | – | CCCCc1nnc([C@]23CC[C@@H](C)[C@H](C)C2C2=CCC4[C@@]5(C)Cc6cc7ccccc7nc6C(C)(C)C5CC[C@@]4(C)[C@]2(C)CC3)o1 (stereo partly shown) [Compound 5e, N-2-[ursa-12-en-(2,3)-quinoline-28-oyl]-5-butyl-1,3,4-oxadiazole] | > 50 | > 50 | > 50 | – | –
15 | – | CCCCc1nnc([C@]23CC[C@@H](C)[C@H](C)C2C2=CCC4[C@@]5(C)Cc6cc7cc(OC)ccc7nc6C(C)(C)C5CC[C@@]4(C)[C@]2(C)CC3)o1 (stereo partly shown) [Compound 5f, N-[5′-methoxy-ursa-12-en-(2,3)-quinoline-28-oyl]-5-butyl-1,3,4-oxadiazole] | > 50 | 30.9 ± 1.14 | > 50 | – | –
16 | – | CCCCc1nnc([C@]23CC[C@@H](C)[C@H](C)C2C2=CCC4[C@@]5(C)Cc6cc7cc(F)ccc7nc6C(C)(C)C5CC[C@@]4(C)[C@]2(C)CC3)o1 (stereo partly shown) [Compound 5g, N-[5′-fluoro-ursa-12-en-(2,3)-quinoline-28-oyl]-5-butyl-1,3,4-oxadiazole] | > 50 | > 50 | > 50 | – | –
17 | – | CCCCc1nnc([C@]23CC[C@@H](C)[C@H](C)C2C2=CCC4[C@@]5(C)Cc6cc7cc(Cl)ccc7nc6C(C)(C)C5CC[C@@]4(C)[C@]2(C)CC3)o1 (stereo partly shown) [Compound 5h, N-[5′-chloro-ursa-12-en-(2,3)-quinoline-28-oyl]-5-butyl-1,3,4-oxadiazole] | > 50 | > 50 | > 50 | – | –
18 | – | Cc1nnc([C@]23CC[C@@H](C)[C@H](C)C2C2=CCC4[C@@]5(C)Cc6cc7ccccc7nc6C(C)(C)C5CC[C@@]4(C)[C@]2(C)CC3)s1 (stereo partly shown) [Compound 6a] | 18.8 ± 1.38 | 27.3 ± 1.91 | > 50 | > 50 | 4.8
19 | – | COc1ccc2nc3c(cc2c1)CC1(C)C(CCC2(C)C1CC=C1C4C(C)C(C)CCC4(c4nnc(C)s4)CCC12C)C3(C)C (stereo not shown) [Compound 6b] | 15.7 ± 2.01 | 12.8 ± 1.32 | > 50 | > 50 | 8.5
20 | – | Cc1nnc([C@]23CC[C@@H](C)[C@H](C)C2C2=CCC4[C@@]5(C)Cc6cc7cc(F)ccc7nc6C(C)(C)C5CC[C@@]4(C)[C@]2(C)CC3)s1 (stereo partly shown) [Compound 6c] | 31.6 ± 2.7 | > 50 | > 50 | > 50 | 2.8
21 | – | CCCCc1nnc([C@]23CC[C@@H](C)[C@H](C)C2C2=CCC4[C@@]5(C)Cc6cc7ccccc7nc6C(C)(C)C5CC[C@@]4(C)[C@]2(C)CC3)s1 (stereo partly shown) [Compound 6e, N-2-[ursa-12-en-(2,3)-quinoline-28-oyl]-5-butyl-1,3,4-thiadiazole] | > 50 | > 50 | > 50 | – | –
22 | – | CCCCc1nnc([C@]23CC[C@@H](C)[C@H](C)C2C2=CCC4[C@@]5(C)Cc6cc7cc(OC)ccc7nc6C(C)(C)C5CC[C@@]4(C)[C@]2(C)CC3)s1 (stereo partly shown) [Compound 6f, N-2-[5′-methoxy-ursa-12-en-(2,3)-quinoline-28-oyl]-5-butyl-1,3,4-thiadiazole] | > 50 | > 50 | > 50 | – | –
23 | – | CCCCc1nnc([C@]23CC[C@@H](C)[C@H](C)C2C2=CCC4[C@@]5(C)Cc6cc7cc(Cl)ccc7nc6C(C)(C)C5CC[C@@]4(C)[C@]2(C)CC3)s1 (stereo partly shown) [Compound 6h, N-2-[5′-chloro-ursa-12-en-(2,3)-quinoline-28-oyl]-5-butyl-1,3,4-thiadiazole] | > 50 | > 50 | > 50 | – | –
24 | – | COc1cc([C@@H]2c3cc4c(cc3[C@@H](O[C@@H]3O[C@@H]5CO[C@@H](C)O[C@H]5[C@H](O)[C@H]3O)[C@H]3COC(=O)[C@H]23)OCO4)cc(OC)c1O [Etoposide, reference compound] | 5.26 ± 1.21 | 2.98 ± 0.42 | 3.48 ± 0.35 | 28.8 ± 3.28 | 9.6
